Literature values as cited in patent US20160000716A1, “METHOD OF TREATING VITAMIN B12 DEFICIENCY” (Pharmaceutical Productions Inc., priority 2013, published 2016).

Conditions: over a wide dosing range, independent of the presence of intrinsic factor

Fraction of oral Vitamin B-12 absorbed: approximately 1.2%
Substance: Vitamin B-12
